# Key:
# Assay in all cases: relative viability (nuclei count vs DMSO), 5 days (fraction); higher = more cells survive
# XMD14-99 + Trametinib = compound: CN1CCN(CC1)C2=CC(=C(C=C2)NC3=NC(=C(S3)C(=O)C4=C(C=CC=C4Cl)Cl)N)OC [XMD14-99] + CC(=O)Nc1cccc(-n2c(=O)n(C3CC3)c(=O)c3c(Nc4ccc(I)cc4F)n(C)c(=O)c(C)c32)c1 [Trametinib] (partner 0.02 µM)
# In short: (§1)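 Relative viability divides the nuclei count in treated wells by that in vehicle wells. Lung cancer cell lines were seeded in 1536-well plates, dosed by pin tool the next day, and fixed and stained after 5 days in one step with final 0.05% Triton X-100, 1% formaldehyde and 1 ug/ml Hoechst. Dosing was a single drug or a fixed anchor-drug dose plus five library-drug doses (not always all listed) in √10 steps, and values are medians of duplicate plates imaged at 4×.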
# AZD1208 + Vorinostat = compound: N[C@@H]1CCCN(c2c(/C=C3\SC(=O)NC3=O)cccc2-c2ccccc2)C1 [AZD1208] + O=C(CCCCCCC(=O)Nc1ccccc1)NO [Vorinostat] (partner 1 µM)
# In short: as §1
# XMD14-99 + Phenformin = compound: CN1CCN(CC1)C2=CC(=C(C=C2)NC3=NC(=C(S3)C(=O)C4=C(C=CC=C4Cl)Cl)N)OC [XMD14-99] + N=C(N)NC(=N)NCCc1ccccc1 [Phenformin] (partner 250 µM)
# In short: as §1
# AZD1208 + Bortezomib = compound: N[C@@H]1CCCN(c2c(/C=C3\SC(=O)NC3=O)cccc2-c2ccccc2)C1 [AZD1208] + CC(C)C[C@H](NC(=O)[C@H](Cc1ccccc1)NC(=O)c1cnccn1)B(O)O [Bortezomib] (partner 0.002 µM)
# In short: as §1
Cell Line,relative viability (XMD14-99 + Trametinib; first compound 0.08 µM),relative viability (XMD14-99 + Trametinib; first compound 0.8 µM),relative viability (XMD14-99 + Trametinib; first compound 2.53 µM),relative viability (XMD14-99 + Trametinib; first compound 8 µM),relative viability (AZD1208 + Vorinostat; first compound 0.08 µM),relative viability (AZD1208 + Vorinostat; first compound 0.253 µM),relative viability (AZD1208 + Vorinostat; first compound 0.8 µM),relative viability (AZD1208 + Vorinostat; first compound 2.53 µM),relative viability (AZD1208 + Vorinostat; first compound 8 µM),relative viability (XMD14-99 + Phenformin; first compound 0.08 µM),relative viability (XMD14-99 + Phenformin; first compound 0.8 µM),relative viability (XMD14-99 + Phenformin; first compound 2.53 µM),relative viability (XMD14-99 + Phenformin; first compound 8 µM),relative viability (AZD1208 + Bortezomib; first compound 0.08 µM),relative viability (AZD1208 + Bortezomib; first compound 0.253 µM),relative viability (AZD1208 + Bortezomib; first compound 0.8 µM),relative viability (AZD1208 + Bortezomib; first compound 2.53 µM),relative viability (AZD1208 + Bortezomib; first compound 8 µM)
201T,0.693,0.709,0.691,0.664,0.961,1.01,0.967,0.949,0.952,0.449,0.441,0.422,0.41,1.13,1.14,1.13,1.16,1.13
A549,,,,,,,,,,0.153,0.16,0.0976,0.133,,,,,
A-427,0.762,0.668,0.651,0.553,0.873,0.913,0.836,0.906,0.828,0.431,0.31,0.259,0.231,1,0.939,0.963,0.936,0.884
ABC-1,,,,,1.75,1.08,0.922,0.997,1.02,0.237,0.203,0.227,0.232,0.302,0.31,0.282,0.268,0.213
BEN,0.971,1.15,1,0.879,0.61,0.584,0.49,0.503,0.427,0.26,0.292,0.248,0.257,0.796,0.763,0.495,0.636,0.475
CAL-12T,0.358,0.305,0.268,0.241,0.675,0.814,0.565,0.653,0.439,0.597,0.567,0.525,0.412,1.32,1.03,0.887,1.03,1.18
COR-L23,0.518,0.56,0.546,0.363,0.488,0.401,0.49,0.433,0.41,0.446,0.418,0.372,0.301,0.927,1.11,0.888,1.02,0.929
COR-L 105,0.407,0.493,0.432,0.431,1.04,0.833,0.898,0.832,0.779,0.477,0.494,0.398,0.371,0.712,1.01,0.807,0.544,0.673
Calu-6,,,,,,,,,,,,,,1.01,1.02,0.976,1.03,0.929
ChaGo-K-1,0.861,0.863,0.895,0.829,0.732,0.831,0.557,0.637,0.608,0.474,0.51,0.494,0.388,1.21,0.983,1.04,0.975,0.92
EBC-1,,,,,,,,,,,,,,0.597,0.586,0.508,0.456,0.448
EKVX,0.321,0.298,0.382,0.294,0.766,0.583,0.744,0.735,0.763,0.261,0.246,0.227,0.23,1.17,1.21,1.03,1.2,1
EMC-BAC-2,0.832,0.716,0.744,0.668,0.872,0.394,0.447,0.469,0.399,0.51,0.515,0.445,0.384,1.15,1.16,1.05,1.02,0.919
EPLC-272H,0.274,0.265,0.287,0.251,0.405,0.505,0.38,0.333,0.443,0.284,0.256,0.302,0.347,0.878,0.806,0.924,0.927,0.728
H3255,0.563,0.67,0.54,0.488,0.831,0.869,0.772,0.747,0.74,0.384,0.398,0.337,0.335,0.874,0.758,0.667,0.968,0.718
HARA,0.577,0.549,0.465,0.466,0.489,0.486,0.451,0.515,0.546,0.438,0.486,0.346,0.324,1.09,1.12,1.08,1.18,1.19
HCC-15,0.415,0.412,0.353,0.349,0.805,0.859,0.834,0.83,0.692,0.51,0.499,0.419,0.321,1.06,1.21,1.07,1.08,0.948
HCC-44,1.02,1.04,1.11,1.01,1.2,1.09,1.13,1.11,1.12,0.261,0.16,0.303,0.168,0.991,0.952,0.857,0.978,0.95
HCC-78,0.628,0.711,0.753,0.438,0.435,0.444,0.413,0.403,0.37,0.681,0.551,0.743,0.451,0.474,0.586,0.453,0.475,0.529
HCC-366,0.424,0.309,0.377,0.261,0.373,0.473,0.391,0.36,0.291,0.647,0.636,0.564,0.554,1.02,1.09,0.943,1.03,0.973

# Source: the supplement of paper PMC10307832
